# ChEMBL document CHEMBL1135342, “Synthesis and evaluation of thymidine-5'-O-monophosphate analogues as inhibitors of Mycobacterium tuberculosis thymidylate kinase” (Bioorg Med Chem Lett, 2002)
# Molecular target: T1, Thymidylate kinase (Mycobacterium tuberculosis) (UniProt P9WKE1)
# T1 sequence (whole entry): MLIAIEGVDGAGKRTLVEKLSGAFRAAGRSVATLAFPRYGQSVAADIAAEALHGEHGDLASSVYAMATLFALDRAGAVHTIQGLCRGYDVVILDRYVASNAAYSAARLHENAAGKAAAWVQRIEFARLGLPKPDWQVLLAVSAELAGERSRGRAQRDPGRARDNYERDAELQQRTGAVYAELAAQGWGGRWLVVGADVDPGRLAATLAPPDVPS
# Assay: Enzyme Kinetic constant was determined in the presence of Mycobacterium tuberculosis thymidine monophosphate kinase
row,Compound,Vm (uM min-1 (mg of protein)-1)
1,Cc1cn([C@H]2C[C@H](F)[C@@H](COP(=O)(O)O)O2)c(=O)[nH]c1=O,0.11
2,O=c1[nH]c(=O)n([C@H]2C[C@H](O)[C@@H](COP(=O)(O)O)O2)cc1I,7.5
3,O=c1[nH]c(=O)n([C@H]2C[C@H](O)[C@@H](COP(=O)(O)O)O2)cc1Br,9.8
4,O=c1[nH]c(=O)n([C@H]2C[C@H](O)[C@@H](COP(=O)(O)O)O2)cc1F,4.7
5,O=c1ccn([C@H]2C[C@H](O)[C@@H](COP(=O)(O)O)O2)c(=O)[nH]1,3.5
6,Cc1cn([C@H]2C[C@H](O)[C@@H](COP(=O)(O)O)O2)c(=O)[nH]c1=O,10.6
7,Cc1cn(-c2ccc(COP(=O)(O)O)o2)c(=O)[nH]c1=O,0.16
